US20250281676A1 (priority 2020, published 2025)

Tests used:
carcinomas = details: delivered with pH sensitive hydrogels; cited from earlier work
tumor = details: delivered by thermosensitive, biodegradable hydrogels; gradual release, local delivery to tumor site; cited from earlier work
[1] = Net charge and isoelectric point of peptide; format: physicochemical; details: pH 7
Excerpt: The peptide may be purified. For example, the peptide may be lyophilized. […] Other peptides are within the scope of the disclosure.
Exemplary peptides having a charge of +5 to +9 include […](d)[…], […] (d)[…], and […] (d)[…]. In other embodiments, the purified peptide may be substantially neutral. […] Net charge may be selected by peptide design. Design of electrostatic charge in the peptide hydrogel may allow control of charge interaction with cell membrane and proteins.

Compound	tumor size compared to systemic delivery (carcinomas)	further results
O=c1[nH]cc(F)c(=O)[nH]1 [5-fluorouracil]	significant decrease in tumor size	
COc1cccc2c1C(=O)c1c(O)c3c(c(O)c1C2=O)C[C@@](O)(C(=O)CO)C[C@@H]3O[C@H]1C[C@H](N)[C@H](O)[C@H](C)O1 [DOX, Doxorubicin]		treatment outcomes compared to systemic treatment modalities (tumor): improved treatment outcomes
CN(C)C(=N)N=C(N)N [metformin]	significant decrease in tumor size	
VEVSVSVEVdPPTEVSVEVEV-NH2		net charge [1]: net negative charge
